Tests used:
[1] = target: T1, Riboflavin-binding protein (Gallus gallus) (UniProt P02752); experiment: Competitive inhibition of chicken riboflavin binding protein binding to immobilized ligand by surface plasmon resonance assay
T1 sequence (whole entry): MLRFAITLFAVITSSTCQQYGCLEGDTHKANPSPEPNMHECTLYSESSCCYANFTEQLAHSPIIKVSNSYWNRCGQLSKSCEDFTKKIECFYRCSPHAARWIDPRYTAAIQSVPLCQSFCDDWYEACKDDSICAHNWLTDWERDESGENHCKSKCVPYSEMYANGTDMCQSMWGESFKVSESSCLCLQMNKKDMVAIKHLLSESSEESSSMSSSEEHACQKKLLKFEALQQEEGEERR

[2] = target: T2, Riboflavin-binding protein (Gallus gallus, UniProt P02752); experiment: Binding affinity to chicken riboflavin binding protein by surface plasmon resonance assay
T2 sequence (P02752 whole entry): T1 sequence (whole entry)

[3] = target: T1, Riboflavin-binding protein (Gallus gallus); experiment: Competitive inhibition of chicken riboflavin binding protein binding to immobilized ligand at 500 uM by surface plasmon resonance assay
[4] = target: T2, Riboflavin-binding protein; experiment: Binding affinity to chicken riboflavin binding protein assessed as dissociation constant at pH 7.4 in phosphate buffer by isothermal titration calorimetric assay
[5] = target: T2, Riboflavin-binding protein; experiment: Binding affinity to chicken riboflavin binding protein assessed as dissociation constant at pH 4 in 0.1 M NaAc by isothermal titration calorimetric assay
[6] = target: T2, Riboflavin-binding protein; experiment: Competitive inhibition of chicken riboflavin binding protein by surface plasmon resonance assay
[7] = target: T2, Riboflavin-binding protein; experiment: Binding affinity to chicken riboflavin binding protein assessed as dissociation constant at pH 7.4 in 0.1 M phosphate buffer by isothermal titration calorimetric assay
[8] = target: T2, Riboflavin-binding protein; experiment: Binding affinity to chicken riboflavin binding protein assessed as dissociation constant at pH 9 in 0.1 M Tris by isothermal titration calorimetric assay

| inhibition [1] | Kd [2] | inhibition [3] | Kd [5] | Ki [6] | Kd [7] | Kd [8] | Structure (SMILES) | Kd [4] |
| --- | --- | --- | --- | --- | --- | --- | --- | --- |
| Dose-dependent effect | 35500 nM | 90% | – | – | – | – | Cc1cc2nc3c(=O)n(CC(=O)NCCCN)c(=O)nc-3n(C[C@H](O)[C@H](O)[C@H](O)CO)c2cc1C | – |
| – | – | – | – | – | – | – | Cc1cc2nc3c(=O)[nH]c(=O)nc-3n(C)c2cc1C [LUMIFLAVIN] | 61 nM |
| – | – | – | 46 nM | 350 nM | 6.6 nM | 34 nM | Cc1cc2nc3c(=O)[nH]c(=O)nc-3n(C[C@H](O)[C@H](O)[C@H](O)CO)c2cc1C [RIBOFLAVIN] | 5 nM |

Reference: ChEMBL document CHEMBL1944628, “Bioanalytical Screening of Riboflavin Antagonists for Targeted Drug Delivery - A Thermodynamic and Kinetic Study” (ACS Med Chem Lett, 2011)
